Source: US7732473B2, “Compounds with nootropic action, their preparation, pharmaceutical compositions containing them, and use thereof” (Neurotune AG, priority 2006, dated 2010)

test system: not given; assay: not given; details: not given

Compound | melting point [°C]
N#Cc1ccc(N2C(=O)CN3C(=O)CCC32)cc1 (stereo not drawn) | 175 to 176
O=C1CCC2N1CC(=O)N2c1ccccc1 (stereo not drawn) [Example 1, 1-Phenyl-tetrahydro-1H-pyrrolo[1,2-a]imidazole-2,5-dione] | 185 to 188
Cc1ccccc1N1C(=O)CN2C(=O)CCC21 (stereo not drawn) [Example 2, 1-o-tolyl-tetrahydro-1H-pyrrolo[1,2-a]imidazole-2,5-dione] | 138 to 139
O=C1CCC2N1CC(=O)N2c1cccs1 (stereo not drawn) [Example 4, 1-Thiophen-2-yl-tetrahydro-pyrrolo[1,2-a]imidazole-2,5-dione] | 170 to 171
Cc1cccc(N2C(=O)CN3C(=O)CCC32)c1 (stereo not drawn) [Example 5, 1-m-Tolyl-tetrahydro-pyrrolo[1,2-a]imidazole-2,5-dione] | 92 to 93
Cc1ccc(F)cc1N1C(=O)CN2C(=O)CCC21 (stereo not drawn) [Example 7, 1-(5-Fluoro-2-methyl-phenyl)-tetrahydro-pyrrolo[1,2-a]imidazole-2,5-dione] | 147 to 148
Cc1c(F)cccc1N1C(=O)CN2C(=O)CCC21 (stereo not drawn) [Example 8] | 135 to 137
Cc1cc(Cl)ccc1N1C(=O)CN2C(=O)CCC21 (stereo not drawn) [Example 10, 1-(4-Chloro-2-methyl-phenyl)-tetrahydro-pyrrolo[1,2-a]imidazole-2,5-dione] | 122 to 124
O=C1CCC2N1CC(=O)N2c1cccc(Cl)c1 (stereo not drawn) [Example 11, 1-(3-Chloro-phenyl)-tetrahydro-pyrrolo [1,2-a]imidazole-2,5-dione] | 123 to 125
COc1cccc(N2C(=O)CN3C(=O)CCC32)c1 (stereo not drawn) [Example 12, 1-(3-Methoxy-phenyl)-tetrahydro-pyrrolo [1,2-a]imidazole-2,5-dione] | 94 to 95
N#Cc1cccc(N2C(=O)CN3C(=O)CCC32)c1 (stereo not drawn) [Example 13, 1-(3-Cyano-phenyl)-tetrahydro-pyrrolo [1,2-a]imidazole-2,5-dione] | 128 to 130
O=C1CCC2N1CC(=O)N2c1ccc(Cl)cc1 (stereo not drawn) [Example 14, 1-(4-Chloro-phenyl)-tetrahydro-pyrrolo [1,2-a]imidazole-2,5-dione] | 159 to 160
O=C1CCC2N1CC(=O)N2c1cccc(O)c1 (stereo not drawn) [Example 15, 1-(3-Hydroxy-phenyl)-tetrahydro-pyrrolo [1,2-a]imidazole-2,5-dione] | 210 to 211
COc1ccc(N2C(=O)CN3C(=O)CCC32)cc1 (stereo not drawn) [Example 18, 1-(4-Methoxy-phenyl)-tetrahydro-pyrrolo[1,2-a]imidazole-2,5-dione] | 210 to 211
Cc1cc(C)cc(N2C(=O)CN3C(=O)CCC32)c1 (stereo not drawn) [Example 19, 1-(3,5-Dimethyl-phenyl)-tetrahydro-pyrrolo [1,2-a]imidazole-2,5-dione] | 103 to 104
Cc1ccc(N2C(=O)CN3C(=O)CCC32)cc1C (stereo not drawn) [Example 20, 1-(3,4-Dimethyl-phenyl)-tetrahydro-pyrrolo [1,2-a]imidazole-2,5-dione] | 142 to 143
O=C1CCC2N1CC(=O)N2c1ccc2ccccc2c1 (stereo not drawn) [Example 21, 1-Naphthalen-2-yl-tetrahydro-pyrrolo [1,2-a]imidazole-2,5-dione] | 175 to 176
CC(C)c1cccc(N2C(=O)CN3C(=O)CCC32)c1 (stereo not drawn) [Example 22, 1-(3-Isopropyl-phenyl)-tetrahydro-pyrrolo [1,2-a]imidazole-2,5-dione] | 81 to 82

Compound | melting point [°C]
Cc1cc(N2C(=O)CN3C(=O)CCC32)ccc1Cl (stereo not drawn) [Example 23, 1-(4-Chloro-3-methyl-phenyl)-tetrahydro-pyrrolo[1,2-a]imidazole-2,5-dione] | 138 to 139
O=C1C(Cc2ccccc2)N2C(=O)CCC2N1c1ccccc1 (stereo not drawn) [Example 24, 3-Benzyl-1-phenyl-tetrahydro-pyrrolo [1,2-a]imidazole-2,5,-dione] | 134 to 136
CC1C(=O)N(c2ccccc2)C2CCC(=O)N12 (stereo not drawn) [Example 25, 3-Methyl-1-phenyl-tetrahydro-pyrrolo [1,2-a]imidazole-2,5,-dione] | 137 to 138
CC(C)CC1C(=O)N(c2ccccc2)C2CCC(=O)N12 (stereo not drawn) [Example 26, 3-Isobutyl-1-phenyl-tetrahydro-pyrrolo [1,2-a]imidazole-2,5,-dione] | 101 to 102
Cc1cc(F)cc(N2C(=O)CN3C(=O)CCC32)c1 (stereo not drawn) [Example 27, 1-(3-Fluoro-5-methyl-phenyl)-tetrahydro-pyrrolo[1,2-a]imidazole-2,5-dione] | 111 to 113
Cc1ccc(N2C(=O)CN3C(=O)CCC32)cc1F (stereo not drawn) [Example 28, 1-(3-Fluoro-4-methyl-phenyl)-tetrahydro-pyrrolo[1,2-a]imidazole-2,5-dione] | 136 to 137
CC12CCC(=O)N1CC(=O)N2c1ccccc1 (stereo not drawn) [Example 29, 7a-Methyl-1-phenyl-tetrahydro-pyrrolo [1,2-a]imidazole-2,5-dione] | 154 to 155
CC(C)c1ccc(N2C(=O)CN3C(=O)CCC32)cc1 (stereo not drawn) [Example 33, 1-(4-Isopropyl-phenyl)-tetrahydro-pyrrolo [1,2-a]imidazole-2,5-dione] | 124 to 125
O=C1CCC2N1CC(=O)N2c1ccc(CO)cc1 (stereo not drawn) [Example 34, 1-(4-Hydroxymethyl-phenyl)-tetrahydro-pyrrolo[1,2-a]imidazole-2,5-dione] | 159 to 161
O=C(O)c1ccc(N2C(=O)CN3C(=O)CCC32)cc1 (stereo not drawn) [Example 35, 4-(2,5-Dioxo-hexahydro-pyrrolo[1,2-a]imidazole-1-yl)-benzoic acid] | 252 to 253
CCOC(=O)c1ccc(N2C(=O)CN3C(=O)CCC32)cc1 (stereo not drawn) [Example 36, 4-(2,5-Dioxo-hexahydro-pyrrolo[1,2-a]imidazole-1-yl)-benzoic acid ethyl ester] | 158 to 159
CS(=O)(=O)c1ccc(N2C(=O)CN3C(=O)CCC32)cc1 (stereo not drawn) [Example 37, 1-(4-Methanesulfonyl-phenyl)-tetrahydro-pyrrolo[1,2-a]imidazole-2,5-dione] | 143 to 145
O=C1CCC2N1CC(=O)N2c1ccc(F)cc1 (stereo not drawn) [Example 38, 1-(4-Fluoro-phenyl)-tetrahydro-pyrrolo [1,2-a]imidazole-2,5-dione] | 158 to 159
O=C1CCC2N1CC(=O)N2c1ccccn1 (stereo not drawn) [Example 40, 1-Pyridin-2-yl-tetrahydro-pyrrolo[1,2-a] imidazole-2,5-dione] | 139 to 140
O=C1CCC2N1CC(=O)N2c1cccnc1 (stereo not drawn) [Example 41, 1-Pyridin-3-yl-tetrahydro-pyrrolo[1,2-a] imidazole-2,5-dione] | 180 to 182
Cc1ccc(N2C(=O)CN3C(=O)CCC32)nc1 (stereo not drawn) [Example 42, 1-(5-Methylpyridin-2-yl)-tetrahydropyrrolo [1,2-a]imidazole-2,5-dione] | 158 to 159
N#Cc1ccccc1N1C(=O)CN2C(=O)CCC21 (stereo not drawn) [Example 43, 1-(2-Cyano-phenyl)-tetrahydro-pyrrolo [1,2-a]imidazole-2,5-dione] | 94 to 95
O=C1CCC2N1CC(=O)N2c1cccc(F)c1 (stereo not drawn) [Example 44, 1-(3-Fluoro-phenyl)-tetrahydro-pyrrolo [1,2-a]imidazole-2,5-dione] | 145 to 149

test system: rat model of mononeuropathy dx; assay: Paw-pressure test in rat chronic constriction injury model of mononeuropathy, injured paw (dx); assay type: in vivo; details: i.c.v., dose per compound (3-300 μg); paw-pressure test 14 days after operation
Text: Pharmacological Methods Chronic Constriction Injury Model
A peripheral mononeuropathy was produced in adult rats by placing loosely constrictive ligatures around the common sciatic nerve according to the method described by Bennett & Xie (Pain […], 33, 87-107).
Rats were anesthetized with chloral hydrate. The common sciatic nerve was exposed at the level of the middle of the thigh by blunt dissection through biceps femoris. Proximal to sciatica's trifurcation, about 1 cm of the nerve was freed of adhering tissue and four ligatures (3/0 silk tread) were tied loosely around it with about 1 mm spacing. The length of the nerve thus affected was […]. Great care was taken to tie the ligatures such that the diameter of the nerve was seen to be just barely constricted when viewed with 40× magnification. The left paw was untouched.
The nociceptive threshold in the rat was determined with an analgesimeter (Ugo Basile, Varese, Italy), according to the method described by Leighton et al. (Br. J. Pharmacol. 1988, 93, 553-560). Rats scoring below 40 g or over 75 g during the test before drug administration (25%) were rejected. An arbitrary cut-off value of 250 g was adopted.

Compound | antihyperalgic effect compared with saline or vehicle treated group
O=C1CN2C(=O)CCC2N1 (stereo not drawn) [DIMIRACETAM, 2,5-dioxohexahydro-1H-pyrrolo[1,2-a]imidazole, reference compound] | showed an antihyperalgic effect
O=C1CCC2N1CC(=O)N2c1ccccc1 (stereo not drawn) [Example 1, 1-Phenyl-tetrahydro-1H-pyrrolo[1,2-a]imidazole-2,5-dione] | showed an antihyperalgic effect
Cc1ccccc1N1C(=O)CN2C(=O)CCC21 (stereo not drawn) [Example 2, 1-o-tolyl-tetrahydro-1H-pyrrolo[1,2-a]imidazole-2,5-dione] | showed an antihyperalgic effect
Cc1cccc(N2C(=O)CN3C(=O)CCC32)c1 (stereo not drawn) [Example 5, 1-m-Tolyl-tetrahydro-pyrrolo[1,2-a]imidazole-2,5-dione] | showed an antihyperalgic effect
Cc1ccc(N2C(=O)CN3C(=O)CCC32)cc1 (stereo not drawn) [Example 6, 1-p-Tolyl-tetrahydro-pyrrolo[1,2-a]imidazole-2,5-dione] | showed an antihyperalgic effect
N#Cc1cccc(N2C(=O)CN3C(=O)CCC32)c1 (stereo not drawn) [Example 13, 1-(3-Cyano-phenyl)-tetrahydro-pyrrolo [1,2-a]imidazole-2,5-dione] | showed an antihyperalgic effect
CC(C)c1cccc(N2C(=O)CN3C(=O)CCC32)c1 (stereo not drawn) [Example 22, 1-(3-Isopropyl-phenyl)-tetrahydro-pyrrolo [1,2-a]imidazole-2,5-dione] | showed an antihyperalgic effect
NCC1(CC(=O)O)CCCCC1 [GABAPENTIN, reference compound] | showed an antihyperalgic effect
CC[C@@H](C(N)=O)N1CCCC1=O [LEVETIRACETAM, 2-(2-oxopyrrolidin-1-yl) butyramide, reference compound] | showed an antihyperalgic effect
